Assay results reported in PMC8691750, “Euphorbia Factor L2 ameliorates the Progression of K/BxN Serum-Induced Arthritis by Blocking TLR7 Mediated IRAK4/IKKβ/IRF5 and NF-kB Signaling Pathways” (Frontiers in Pharmacology, 2021).

Key:
[1] = test system: TLR7 (R837) / TLR3 (poly:IC) induced cytokine production in RAW264.7 cells; assay: ELISA of IL-1β and IL-6 in supernatant of R837 and/or poly:IC stimulated RAW264.7 cells; format: cell-based, mouse
Procedure: (§1) RAW264.7 cells (5×10^5/ml), BMDMs (5×10^5/ml) and PBMCs (2×10^6/ml) were plated in 96-well plates and incubated overnight. […] For the anti-inflammatory molecular mechanism study, RAW264.7 cells (5×10^5/ml) were plated in 96-well plates and stimulated with R837 (20 μg/ml) with or without the addition of NF-κB inhibitor (JSH-23, […]) for 24 h. After 24 h, the culture supernatant was collected for cytokines measurements.
(§2) IL-4, IL-17A and TNF-α in sera from different group mice were measured using CBA Multiplex kit (BD, United States). The concentrations of IL-1β and IL-6 in serum or supernatant were detected by ELISA Kit (MULTI SCIENCES, China) according to the manufacturers’ instructions.

[2] = test system: TLR7-mediated IRAK4/IKKβ/IRF5 signaling pathway; assay: Western blot, IRAK4/IKKβ/IRF5 in R837-stimulated RAW264.7 cells; format: cell-based, mouse; settings: RAW264.7 cells; R837 alone
Procedure: (§3) RAW264.7 cells (2×10^6 cells/well) were plated into 6-well plates and then incubated at 37°C in 5% CO2 for 24 h. After incubated with various concentrations of EFL2 (1, 5 and 10 µM) for 1 h, cells were then stimulated by R837 (20 μg/ml) for 30 min. Cell lysates were prepared by direct lysis in 20 µL IP buffer (Beyotime Biotechnology, Shanghai, China). After obtaining the whole cell extracts, the cytosolic and nuclear were seperated using Nuclear and Cytoplasmic Protein Extraction Kit (Beyotime Biotechnology, Shanghai, China). BCA Protein Assay Kit (Beyotime Biotechnology, Nantong, China) was applied to determine the protein concentrations. The bands corresponding to p- IKKα/β, IKKα/β, p-IκBα, IκBα, p-p65, p65, p-IRAK4, IRAK4, p-IKKβ, IKKβ, p-IRF5, IRF5, β-actin and Lamin B were visualized using a Western Blot Detection Chemiluminescence Kit (Merck). Protein extracted from the total lysates/cytoplasm and nucleus was quantified in relation to β-actin and Lamin B bands, respectively.
(§4) The antibodies used in the experiments were as follows: rabbit anti-mouse IKKα/β polyclonal antibody (1:1,000, Abways, China), rabbit anti-mouse IκBα polyclonal antibody (1:1,000, Abgent, China), rabbit anti-mouse p65 polyclonal antibody (1:1,000, Abgent, China), rabbit anti-mouse phosphorylated IKKα (Ser176)/β (Ser177) (1:1,000, Abways, China), rabbit anti-mouse phosphorylated IκBα (1:1,000, Abcam, United States), rabbit anti-mouse phosphorylated p65 (1:1,000, Abcam, United States), rabbit anti-mouse IRAK4 polyclonal antibody (1:1,000, Proteintech, United States), rabbit anti-mouse phosphorylated IRAK4 (Thr345/Ser346) (1:1,000, Affinity, United States), rabbit anti-mouse IKKβ polyclonal antibody (1:1,000, Abbkine, United States), rabbit anti-mouse phosphorylated IKKβ (Ser177) (1:1,000, Abways, China), rabbit anti-mouse IRF5 polyclonal antibody (1:1,000, Immunoway, United States), rabbit anti-mouse phosphorylated IRF5 (Ser437) (1:1,000, Affinity, United States), anti-mouse actin monoclonal antibody (1:20,000, Transgen, China) and rabbit anti-mouse LaminB monoclonal antibody (1:5,000, Abways, China).

[3] = test system: P65 and IRF5 translocation; assay: Confocal microscopy of p65 and IRF5 translocation in RAW264.7 cells; format: cell-based, mouse; settings: R837 alone, immunofluorescence staining
Procedure: P65 and IRF5 translocation activity was analyzed by confocal microscopy. Briefly, 1×10^5 RAW264.7 cells were plated on coverslips overnight. Cells were pretreated with various concentrations of EFL2 (1, 5 and 10 µM) for 1 h and then stimulated by R837 (20 μg/ml) for 30 min. After washed with ice-cold PBS, RAW264.7 cells were fixed with 4% paraformaldehyde for 20 min at room temperature. The coverslips were washed with PBS with 0.2% tween 20 and blocked with 5% goat serum. Primary antibodies were applied to coverslips overnight at 4°C, followed by secondary antibodies incubation for 1 h at room temperature. After three times wash, coverslips were mounted with Fluoroshield™ with DAPI (Solarbio, China) and images were acquired by confocal microscopy (ZEISS, Germany). Primary antibody: rabbit anti-mouse IRF5 (1:800, Abcam, China); rabbit anti-mouse p65 (1:1,000, Abcam, China). Secondary antibody: Alexa eFluor®488 conjugated goat anti-rabbit IgG (1:2000, Thermo Fisher Scientific, Carlsbad, United States).

[4] = test system: TLR7-mediated NF-κB signaling pathway (IKKα/β, IκBα, p65); assay: Western blot, NF-κB pathway in R837-stimulated RAW264.7 cells; format: cell-based, mouse; settings: RAW264.7 cells; R837 alone
Procedure: as §3, §4

[5] = test system: TLR7 (R837) / TLR3 (poly:IC) induced cytokine production in BMDMs; assay: ELISA of IL-1β and IL-6 in supernatant of R837 and/or poly:IC stimulated BMDMs; format: cell-based, C57BL/6 mice
Procedure: (§5) RAW264.7 cells, a mouse macrophage cell line, were cultured in DMEM medium containing 10% fetal bovine serum (FBS), 1% penicillin-streptomycin and maintained at 37 °C in 5% CO2 humidified air. Bone marrow-derived macrophages (BMDMs) generation was performed as following description. In brief, bone marrow cells were harvested from tibias and femurs of C57BL/6 mice and differentiated for 7 days in DMEM medium supplemented with 10% FBS, 1% penicillin-streptomycin and 50 ng/ml M-CSF. For human peripheral blood mononuclear cells (PBMCs) preparation, 5 ml peripheral venous blood was obtained from healthy donors in West China Hospital. PBMCs were isolated with Human Lymphocyte Separation Medium (LTS1077, Tian Jing, China) according to the manufacturer’s instructions. The experimental protocols were performed according to the approved guidelines established by the Institutional Human Research Subject Protection Committee of the Ethics Committee of West China Hospital, Sichuan University, China.
as §1, §2

[6] = test system: TLR7 (R837) induced cytokine production in PBMCs; assay: ELISA of IL-1β and IL-6 in supernatant of R837 stimulated PBMCs; format: cell-based, human; settings: PBMCs; R837 alone
Procedure: as §5
RAW264.7 cells (5×10^5/ml), BMDMs (5×10^5/ml) and PBMCs (2×10^6/ml) were plated in 96-well plates and incubated overnight. […]
as §2

[7] = test system: K/BxN serum-transfer arthritis (STA) model; assay: K/BxN serum-transfer arthritis (STA) model, arthritic index / clinical score; format: in vivo, C57BL/6 mice; settings: STA mice; DEX 30 mg/kg gavage daily
Procedure: (§6) K/BxN serum was collected from K/BxN mice at 8 weeks of age, pooled, aliquoted and stored at -20 °C. K/BxN serum-transfer arthritis (STA) model was induced by intraperitoneal (i.p.) application of 150 μL of serum at day 0. Clinical score for arthritis severity was assessed using a 0–4 point scale for each paw at various time points (0–16 total score) as described previously ([Luo et al., 2011]). 8-week old male C57BL/6 mice were purchased from Dashuo Animal Center (China, Chengdu), maintained at 25°C, and exposed to 12-h light and dark cycles. Mice were fed with standard laboratory chow and water with 1 week of acclimatization. Naive mice were used as the control group. Except the control mice, all mice were i. p. injected with 150 μL of serum, then randomly divided into the following groups and treated with different compounds daily for the consecutive 8 days: 1) STA group; 2) Solvent control group, mice were gavaged with the solvent; 3) Dexamethasone (DEX) group, mice were gavaged with 30 mg/kg DEX; 4) EFL2 group 1, mice were gavaged with 40 mg/kg EFL2; 5) EFL2 group 2, mice were intraperitoneally injected with 15 mg/kg EFL2; 6) EFL2 group 3, […] were intraperitoneally injected with 40 mg/kg EFL2. […] All animal experiments were conducted in accordance with ethical regulation for animal care and use in China.

[8] = test system: synovial hyperplasia and articular inflammatory cells infiltration in knee joints; assay: Histological assessment (H&E) of knee joints of STA mice; format: in vivo, C57BL/6 mice; settings: DEX 30 mg/kg gavage
Procedure: as §6
The left knee joints were removed on day 13 post STA and fixed in 4% formaldehyde overnight at 4°C. The tissues were decalcified in EDTA and sectioned after embedding in paraffin. 5 μm sections were deparaffinized with xylene, re-hydrated with 100, 95 and 80% ethanol and then stained with hematoxylin and eosin (H&E). Histopathological changes in the knee joints were measured using a semiquantitative scoring system (0–4 scale) to assess synovial hyperplasia and articular inflammatory cells infiltration as previously described ([Yamanishi et al., 2002]).

[9] = test system: TNF-α, IL-4, IL-17A, IL-1β and IL-6 in serum; assay: Cytokines in sera of STA mice (CBA Multiplex kit, ELISA); format: in vivo, C57BL/6 mice; settings: STA mice; DEX 30 mg/kg gavage
Procedure: as §6, §2

[10] = RAW 264.7 cells, JSH-23 10 μM, 24 h

## CC(C)Cn1cnc2c(N)nc3ccccc3c21 [R837, imiquimod, reference compound]
[1]; RAW264.7 cells, R837 alone (20 μg/ml)
  IL-1β and IL-6 release in the supernatant: robustly induced
[2]
  phosphorylation of IRAK4 and IKKβ: rapidly triggered
[3]
  IRF5 translocation from cytoplasm to nucleus: dramatically induced
[4]
  phosphorylation of IKKα/β and IκB-α: rapidly occurs
[5]; BMDMs, R837 alone (20 μg/ml)
  IL-1β and IL-6 release in the supernatant: robustly induced
[6]
  IL-1β and IL-6 release in the supernatant: robustly induced

## poly (I:C) [reference compound]
[1]; R837-stimulated RAW264.7 cells, addition of poly (I:C)
  IL-1β and IL-6 production: did enhance
[1]; RAW264.7 cells, poly (I:C) alone (1 μg/ml)
  IL-1β and IL-6 secretion: significantly increased
[5]; BMDMs, poly (I:C) alone (1 μg/ml)
  IL-1β and IL-6 production: did not affect
[5]; R837-stimulated BMDMs, addition of poly (I:C)
  IL-1β and IL-6 production: did enhance

## C[C@@H]1C[C@H]2[C@@H]3CCC4=CC(=O)C=C[C@]4(C)[C@@]3(F)[C@@H](O)C[C@]2(C)[C@@]1(O)C(=O)CO [DEX, Dexamethasone, reference compound]
[7]
  arthritis clinical scores: significantly lowered
[8]
  inflammatory status and inflamed synovium in joints: significantly inhibited
[9]
  IL-1β level in sera: significantly reduced
  IL-6 level in sera: significantly reduced

## Cc1ccc(NCCCc2ccccc2)c(N)c1 [JSH-23]
[1]; [10]
  R837-induced IL-1β production: to a large extent, blocked
  R837-induced IL-6 secretion: only partially reduced
